Test results published in article PMC4138406, “In vitro and in vivo anti-malarial activity of limonoids isolated from the residual seed biomass from Carapa guianensis (andiroba) oil production” (Malaria Journal, 2014).
Values after ≈ are worked out from the molar mass of the structure shown. Values joined by “and” are separate entries in the source; they are usually repeats but may differ in a detail not shown here. Identical values can stand only once. Counter-ions that a name gives are not always drawn. Like-named read-outs stand apart in the source and are kept apart here.

Key:
MRC-5 human fibroblasts = experiment: Cytotoxicity assay (AlamarBlue) on MRC-5 human fibroblasts; format: cell-based
Method: The MRC-5 cell line of human fibroblasts was grown in Dulbecco’s Modified Eagle’s Medium (DMEM) supplemented with 10% fetal bovine serum, 2 mM glutamine, 100 μg/mL streptomycin and 100 U/mL penicillin, and incubated at 37°C with a 5% atmosphere of CO2. For assays, the cells were plated in 96-well plates (2.5 × 10^4 cells/well) and the AlamarBlue™ assay was performed using a previously described procedure. After incubation for 24 h, compounds 1-5 were individually dissolved in DMSO and the resulting solutions were diluted in culture medium. The resulting dilute solutions of each sample were added to wells at final (well) concentrations of 1.56-100 μg/mL. Control groups had final well concentrations of 0.1% DMSO. The plates were further incubated for 48 h. 3 h before the end of the incubation period, AlamarBlue™ (10 μL) was added to each well. The fluorescent signal was monitored with a multiplate reader using 530-560 nm excitation and 590 nm emission wavelengths.

[1] = tested on: Plasmodium falciparum K1 strain; experiment: In vitro anti-plasmodial assay (micro test), growth inhibition of P. falciparum K1; format: cell-based; details: for IC50: Plasmodium falciparum, read-out: IC50 Plasmodium falciparum K1; for Result Plasmodium falciparum K1: activity class from IC50, K1 strain
Method: Briefly, this procedure involved preparing 5 mg/mL stock solutions of each compound in dimethyl sulfoxide (DMSO). The stock solutions were diluted to provide test solutions having concentrations in the range 0.13-100 μg/mL. Test solutions were transferred to 96-well test plates containing parasitized red blood cells with initial 2% haematocrit and 1% parasitaemia. Each sample was evaluated in duplicate and the test plate was incubated for 48 h at 37°C. After incubation, quantification of parasites was achieved by optical microscopy on blood smears from each well [27].

[2] = tested on: W2 strain of P. falciparum; details: cited from earlier work
[3] = tested on: Plasmodium berghei NK65 strain; experiment: Peters 4-day suppressive test in infected BALB/c mice; format: in vivo, Plasmodium berghei in BALB/c mice
Method: Adult BALB/c mice (22 ± 3 g weight) were used for the in vivo anti-malarial tests and received water and food ad libitum. In vivo tests were performed using ‘Guidelines for Ethical Conduct in The Care and Use of Animals of the National Institute for Amazon Research (INPA)’.
Limonoids 3 and 4 were assayed for in vivo anti-malarial activity in the Peters 4-day suppressive test against the Plasmodium berghei NK65 strain in BALB/c female mice, each inoculated with 1 × 10^5 parasitized red blood cells. The mice were randomly divided into groups of five individuals and individual […] evaluation of parasitaemia versus controls (negative control groups were treated with 2% DMSO vehicle and positive control groups with chloroquine) on days 5 and 7 following an established procedure. Mortality was monitored in all groups for four weeks after inoculation. Two independent in vivo experiments were performed.

[4] = tested on: K1 and FCR-3 strains of P. falciparum; details: earlier studies; read-out: IC50 against the K1 and FCR-3 strains of P. falciparum; cited from earlier work
P. berghei strain ANKA = details: cited from earlier work
[5] = tested on: W2, D6 and FCR-3 strains of P. falciparum; parameters: method as in doi:10.1016/j.tet.2011.12.076, PMID 9134742, doi:10.1111/j.1744-7348.2003.tb00279.x; details: range over strains; read-out: IC50 against W2, D6 and FCR-3 strains of P. falciparum; cited from earlier work
Plasmodium vinckei = tested on: Plasmodium vinckei; parameters: method as in PMID 23433124; details: cited from earlier work
[6] = tested on: FCR-3 strain of P. falciparum; parameters: method as in doi:10.1016/j.tet.2011.12.076; details: read-out: IC50 against the FCR-3 strain of P. falciparum; cited from earlier work
P. falciparum D6 = tested on: P. falciparum D6; parameters: method as in PMID 9134742; details: cited from earlier work
[7] = parameters: method as in PMID 12570769; details: cited from earlier work
[8] = MRC5, MRC-5, 48 h, read-out: IC50 Human fibroblasts MRC-5
[9] = 50 mg/kg/day, vs untreated controls
[10] = 100 mg/kg/day, vs untreated controls

## C=C1[C@@H]([C@@]2(C)C=CC(=O)C(C)(C)[C@@H]2CC(=O)OC)CC[C@@]2(C)[C@H](c3ccoc3)OC(=O)[C@H]3O[C@]132 [compound 2, andirobin]
MRC-5 human fibroblasts; [8]
  IC50: > 203 µM
[1]; K1 strain, 48 h incubation
  IC50: 15.3 µM
[1]
  Result Plasmodium falciparum K1: MA (5 < IC50 ≤ 20 μM = moderately active (MA))

## CC1(C)C(=O)C=C[C@@]2(C)C1CC(=O)[C@]1(C)C2CC[C@@]2(C)[C@H](c3ccoc3)OC(=O)[C@H]3O[C@]321 (stereo partly drawn) [compound 4, 7-deacetoxy-7-oxogedunin]
[2]; read-out: IC50 against the W2 strain of P. falciparum
  IC50: > 22.8 µM
[3]; 50 mg/kg/day
  Average survival time ± SD Oral: 20 ± 2 days
  % Parasite inhibition Oral 7th day: 0%
  Average survival time ± SD Subcutaneous: 21 ± 4 days
  % Parasite inhibition Subcutaneous 5th day: 29.2%
  % Parasite inhibition Subcutaneous 7th day: 0%
[3]; [9]
  % Parasite inhibition Oral 5th day: 19.3%
[3]; 100 mg/kg/day
  Average survival time ± SD Oral: 21 ± 3 days
  % Parasite inhibition Oral 7th day: 28.9%
  Average survival time ± SD Subcutaneous: 22 ± 2 days
  % Parasite inhibition Subcutaneous 5th day: 38.6%
  % Parasite inhibition Subcutaneous 7th day: 21.7%
[3]; [10]
  % Parasite inhibition Oral 5th day: 40% and 40.3%
[4]
  IC50: 2.5 to 4.1 µM
MRC-5 human fibroblasts; MRC5, 48 h, read-out: IC50 Human fibroblasts MRC-5
  IC50: 108 µM
MRC-5 human fibroblasts; MRC5, 48 h, read-out: IC50 MRC-5 cells
  IC50: 47.3 µg/mL
[1]; K1, 48 h
  IC50: 20.7 µM
[1]
  Result Plasmodium falciparum K1: I (IC50 > 20 μM = inactive (I))

## CC(=O)O[C@@H]1C[C@H]2C(C)(C)C(=O)C=C[C@]2(C)[C@H]2CC[C@@]3(C)[C@H](c4ccoc4)OC(=O)[C@H]4O[C@]43[C@@]21C [compound 6, Gedunin]
P. berghei strain ANKA; oral doses of 25 or 100 mg/kg/day
  suppression of P. berghei in mice: did not suppress
[5]
  IC50: 0.4 to 2.5 µM

## C=C[C@H]1C[N@@]2CC[C@H]1C[C@H]2[C@H](O)c1ccnc2ccc(OC)cc12 [quinine]
P. berghei strain ANKA; mice infected with P. berghei strain ANKA
  median effective dose (ED50): 34 mg/kg/day

## C[C@H]1[C@H](OC(=O)CCC(=O)[O-])O[C@@H]2O[C@@]3(C)CC[C@H]4[C@H](C)CC[C@@H]1[C@@]24OO3.[Na+] [sodium artesunate]
Plasmodium vinckei
  doses at which infected mice exhibit recrudescence: < 80 mg/kg/day

## CC(=O)O[C@@H]1C2C(C)(C)C(=O)C=C[C@]2(C)C2CC[C@@]3(C)[C@H](c4ccoc4)OC(=O)[C@H]4O[C@]43[C@]2(C)[C@@H]1O (stereo partly drawn) [compound 7, andirolide H]
[6]
  IC50: 4 µM

## CC1(C)C(=O)C=C[C@@]2(C)C1[C@@H](O)[C@@H](O)[C@]1(C)C2CC[C@@]2(C)[C@H](c3ccoc3)OC(=O)[C@H]3O[C@]321 (stereo partly drawn) [compound 5, 6α-hydroxydeacetylgedunin]
MRC-5 human fibroblasts; [8]
  IC50: > 219 µM
[1]; K1 strain, 48 h incubation
  IC50: 5 µM
[1]
  Result Plasmodium falciparum K1: A (0.1 < IC50 ≤ 5 μM = active (A))

## CC(=O)O[C@@H]1C2C(C)(C)C(=O)C=C[C@]2(C)C2CC[C@@]3(C)[C@H](c4ccoc4)C(=O)[C@H]4O[C@]43[C@]2(C)[C@@H]1OC(C)=O (stereo partly drawn) [compound 1, 6α-acetoxyepoxyazadiradione]
MRC-5 human fibroblasts; [8]
  IC50: > 191 µM
[1]; K1 strain, 48 h incubation
  IC50: 15.4 µM
[1]
  Result Plasmodium falciparum K1: MA (5 < IC50 ≤ 20 μM = moderately active (MA))

## CC1(C)C(=O)C=C[C@@]2(C)C1C[C@@H](O)[C@]1(C)C2CC[C@@]2(C)[C@H](c3ccoc3)OC(=O)[C@H]3O[C@]321 (stereo partly drawn) [compound 9, 7-deacetylgedunin]
[2]
  IC50 against W2: 1.3 µg/mL (≈ 2.95 µM)
P. falciparum D6; D6
  IC50 against D6: 2.6 µg/mL (≈ 5.9 µM)
P. falciparum D6; D6 and W2, compared to gedunin
  times less in vitro activity than gedunin: about 65 times
[7]; physiologic conditions
  stability under physiologic conditions found in mice: unstable
[7]; simulated gastric (low pH)
  stability under simulated gastric (low pH) conditions: low stability

## CC(=O)O[C@@H]1C2C(C)(C)C(=O)C=C[C@]2(C)C2CC[C@@]3(C)[C@H](c4ccoc4)OC(=O)[C@H]4O[C@]43[C@]2(C)[C@@H]1OC(C)=O (stereo partly drawn) [compound 3, 6α-acetoxygedunin]
[3]; 50 mg/kg/day
  Average survival time ± SD Oral: 20 ± 3 days
  % Parasite inhibition Oral 7th day: 34.7%
  Average survival time ± SD Subcutaneous: 21 ± 2 days
  % Parasite inhibition Subcutaneous 5th day: 34.4%
  % Parasite inhibition Subcutaneous 7th day: 16.8%
[3]; [9]
  % Parasite inhibition Oral 5th day: 40% and 40.2%
[3]; 100 mg/kg/day
  Average survival time ± SD Oral: 24 ± 3 days
  % Parasite inhibition Oral 7th day: 46.3%
  Average survival time ± SD Subcutaneous: 22 ± 4 days
  % Parasite inhibition Subcutaneous 5th day: 44.2%
  % Parasite inhibition Subcutaneous 7th day: 30.4%
[3]; [10]
  % Parasite inhibition Oral 5th day: 66% and 65.7%
[6]
  IC50: 2.8 µM
MRC-5 human fibroblasts; [8]
  IC50: > 185 µM
[1]; K1 strain, 48 h incubation
  IC50: 7 µM
[1]
  Result Plasmodium falciparum K1: MA (5 < IC50 ≤ 20 μM = moderately active (MA))

## CO[C@@H]1CC2C(C)(C)C(=O)C=C[C@]2(C)C2CC[C@@]3(C)[C@H](c4ccoc4)OC(=O)[C@H]4O[C@]43[C@@]21C (stereo partly drawn) [compound 10, 7-deacetyl-7-O-methylgedunin]
P. berghei strain ANKA; oral, 50 mg/kg/day
  inhibition of parasitaemia of P. berghei ANKA in mice: 68%

## CC(=O)O[C@@H]1[C@H](O)C2C(C)(C)C(=O)C=C[C@]2(C)C2CC[C@@]3(C)[C@H](c4ccoc4)OC(=O)[C@H]4O[C@]43[C@@]21C (stereo partly drawn) [compound 8, 6α-hydroxygedunin]
[6]
  IC50: 90 µM

## C=C1[C@@H]2CC[C@@]3(C)[C@H](c4ccoc4)OC(=O)C[C@]13O[C@H]1CC(=O)C(C)(C)[C@H](CC(=O)OC)[C@]12C [methyl angolensate]
[6]
  IC50: 12 to 15 µM

## C=C[C@H]1C[N@@]2CC[C@H]1C[C@H]2[C@H](O)c1ccnc2ccc(OC)cc12 [quinine sulfate, reference compound]
[1]; K1 strain, 48 h incubation
  IC50: 0.3 µM
[1]
  Result Plasmodium falciparum K1: A (0.1 < IC50 ≤ 5 μM = active (A))

## CCN(CC)CCCC(C)Nc1ccnc2cc(Cl)ccc12 (stereo not drawn) [chloroquine diphosphate, reference compound]
[3]; 5 mg/kg/day
  Average survival time ± SD Oral: >40 days
  % Parasite inhibition Oral 5th day: 100%
  % Parasite inhibition Oral 7th day: 98%
  Average survival time ± SD Subcutaneous: >40 days
  % Parasite inhibition Subcutaneous 5th day: 99%
  % Parasite inhibition Subcutaneous 7th day: 99%
[1]; K1, 48 h
  IC50: 0.33 µM
[1]
  Result Plasmodium falciparum K1: A (0.1 < IC50 ≤ 5 μM = active (A))
